The subject of experiment [1] is S. pneumoniae with reduced susceptibility to CIP. The experiment is described as follows: MIC by NCCLS microbroth dilution, 80 clinical isolates with CIP MIC ≧2 μg/ml. The format is cell-based. The note with it: Streptococcus pneumoniae, 80 isolates with CIP MICs ≧2 μg/ml. How it is done: MICs to penicillin (herein “PEN”), CIP, levofloxacin (herein “LEV”), TFX, moxifloxacin (herein “MOX”), grepafloxacin (herein “GRE”), gatifloxacin (herein “GAT”), sparfloxacin (herein “SPA”), and gemifloxacin (herein “GFX”) were determined using a microbroth dilution technique described by the NCCLS. Topoisomerase IV (parC) and DNA gyrase (gyrA) mutations were confirmed by sequencing the QRDR region of each gene. Serotyping and PFGE were performed on all isolates. […] Breakpoints have not been established for all fluoroquines, thus percentage resistance was not calculated.

Experiment [2] has as its system CFX and TFX susceptible and resistant S. pneumoniae. The experiment is described as follows: Postantibiotic effect (PAE), 2 hour exposure, viable colony counting. It counts as cell-based, Streptococcus pneumoniae. Conditions: for mean PAE at 4× MIC: exposure 2 hours at 4× MIC; for mean PAE at 10× MIC: exposure 2 hours at 10× MIC. How it is done: This invention was based, in part, on analyses evaluating the comparative activity of gemifloxacin against various strains of S. pneumoniae.
MICs were determined using a microbroth dilution technique described by the NCCLS. Topisomeriase IV (parC) and DNA gyrase (gyrA) mutations were confirmed by sequencing the QRDR region of each gene. […] Antibiotics were removed using dilution into sterile media and the PAE assessed using a viable colony counting technique.

The mark [3] stands for this setting: isolates susceptible to the tested drug.
Setting [4] is: GFX, isolates not restricted to susceptible.

Each structure is given as a SMILES string. Converted amounts (≈) assume the structure as drawn.

`N[C@@H]1[C@H]2CN(c3nc4c(cc3F)c(=O)c(C(=O)O)cn4-c3ccc(F)cc3F)C[C@@H]12` [TFX, trovafloxacin]: the results for the MIC50 in experiment [1] (MIC50 of Table 1) and in experiment [1] (Table 1 MIC50) were 0.5 µg/mL (≈ 1.2 µM) and 4 µg/mL (≈ 9.61 µM), respectively. In experiment [1], the MIC fell in the range of 0.06 to 8 µg/mL (≈ 0.144 to 19.2 µM). Further, in experiment [2] (setting [3]), the “mean PAE at 4× MIC” value was determined as 2.1 h. In addition, in experiment [2] (setting [3]), the “mean PAE at 10× MIC” value was determined as 3.2 h.
With `Cc1c(F)c(N2CCNC(C)C2)cc2c1c(=O)c(C(=O)O)cn2C1CC1` (centres unmarked) [GRE, grepafloxacin], the MIC50 in experiment [1] (MIC50 of Table 1) came to 0.5 µg/mL (≈ 1.39 µM); in experiment [1] (Table 1 MIC50), 8 µg/mL (≈ 22.3 µM). In experiment [1], this molecule displayed an MIC of 0.12 to 8 µg/mL (≈ 0.334 to 22.3 µM).
The like results for `C[C@@H]1CN(c2c(F)c(N)c3c(=O)c(C(=O)O)cn(C4CC4)c3c2F)C[C@H](C)N1` [SPA, sparfloxacin] were, in that order, 0.5 µg/mL (≈ 1.27 µM), 16 µg/mL (≈ 40.8 µM) and 0.25 to 32 µg/mL (≈ 0.637 to 81.5 µM).
The like results for `COc1c(N2C[C@@H]3CCCN[C@@H]3C2)c(F)cc2c(=O)c(C(=O)O)cn(C3CC3)c12` [MOX, moxifloxacin] were, in that order, 0.25 µg/mL (≈ 0.623 µM), 2 µg/mL (≈ 4.98 µM) and 0.12 to 4 µg/mL (≈ 0.299 to 9.96 µM).
The like results for `C[C@H]1COc2c(N3CCN(C)CC3)c(F)cc3c(=O)c(C(=O)O)cn1c23` [LEV, levofloxacin] were, in that order, 2 µg/mL (≈ 5.53 µM), 16 µg/mL (≈ 44.3 µM) and 1 to 32 µg/mL (≈ 2.77 to 88.6 µM).
For the molecule `COc1c(N2CCNC(C)C2)c(F)cc2c(=O)c(C(=O)O)cn(C3CC3)c12` (centres unmarked) [GAT, gatifloxacin], the MIC50 was found to be 0.5 µg/mL (≈ 1.33 µM) in experiment [1] (MIC50 of Table 1) and 4 µg/mL (≈ 10.7 µM) in experiment [1] (Table 1 MIC50). In experiment [1], the MIC was 0.25 to 8 µg/mL (≈ 0.666 to 21.3 µM).
Molecule `CO/N=C1\CN(c2nc3c(cc2F)c(=O)c(C(=O)O)cn3C2CC2)CC1CN` (racemic) [GFX, (R,S)-7-(3-aminomethyl-4-methoxyiminopyrrolidin-1-yl)-1-cyclopropyl-6-fluoro-4-oxo-1,4-dihydro-1,8-naphthyridine-3-carboxylic acid] gave an MIC50 in experiment [1] (MIC50 of Table 1) of 0.06 µg/mL (≈ 0.154 µM). In addition, the MIC50 in experiment [1] (Table 1 MIC50) was found to be 0.25 µg/mL (≈ 0.642 µM). In experiment [1], this molecule showed a minimum inhibitory concentration (MIC) of 0.03 to 0.5 µg/mL (≈ 0.077 to 1.28 µM). For the same molecule, in experiment [2] (setting [4]), the “mean PAE at 4× MIC” value was 2.7 h and the “mean PAE at 10× MIC” value is 3.8 h. Also, in experiment [2] (p<0.05), the “difference in duration of PAE between CFX or TFX susceptible and resistant strains” value is “no significant difference”.

Values taken from patent US20030073695A1, “Methods of use of gemifloxacin compounds against fluoroquinolone resistant Streptococcus pneumoniae bacteria” (priority 2000, published 2003).
